According to patent publication US8343513B2, “Prevention of molecular weight reduction of the polymer, impurity formation and gelling in polymer compositions” (Oakwood Laboratories, LLC, priority 2003, dated 2013):
Where a SMILES comes first, the peptide text is derived from it. [ ]: non-standard residue; d: D form. The star is where a group is joined. dPhe(4-Cl) = N[C@H](Cc1ccc(Cl)cc1)C(=O)O; Nicotinoyl(6-NH2) = Nc1ccc(C(=O)*)cn1; d2Nal = N[C@H](Cc1ccc2ccccc2c1)C(=O)O; Lys(iPr) = CC(C)NCCCC[C@H](N)C(=O)O; d3Pal = N[C@H](Cc1cccnc1)C(=O)O; Picolinoyl = O=C(c1ccccn1)*; dOrn = NCCC[C@@H](N)C(=O)O

What was measured:
[1] = Orntide solubility and gelling in solvents and dispersed phase; type: physicochemical
Description: However, most of the GnRH analogs are soluble only at certain concentrations (at very low concentrations of antagonists and moderate concentrations of agonists) beyond which these analogs pose solubility and gelling problems when dissolved in these solvents.
The stability was followed for a day.

[2] = Screening of octreotide related substance formation with polymers and acid additives, 40° C. 24 and 48 hour; type: physicochemical; conditions: octreotide with polymer in DCM/methanol
[3] = cited from earlier work

Structure (SMILES)	related substances formation in words [2]	other results
CC(=O)N[C@H](Cc1ccc2ccccc2c1)C(=O)N[C@H](Cc1ccc(Cl)cc1)C(=O)N[C@H](Cc1cccnc1)C(=O)N[C@@H](CO)C(=O)N[C@@H](CCCCNC(=O)c1ccccn1)C(=O)N[C@H](CCCNC(=O)c1ccc(N)nc1)C(=O)N[C@@H](CC(C)C)C(=O)N[C@@H](CCCCNC(C)C)C(=O)N1CCC[C@H]1C(=O)N[C@H](C)C(N)=O [PPL-ORN-9902] (Ac-[d2Nal][dPhe(4-Cl)][d3Pal]SK(Picolinoyl)[dOrn](Nicotinoyl(6-NH2))L[Lys(iPr)]P[dA]-NH2)		time to gel ([1]; 84 mg orntide acetate, 100 mg glacial acetic acid, 130 mg methanol, 1.28 g methylene chloride, warmed to 40° C.): ≤ 30 min
CC(=O)O [glacial acetic acid]	less efficient than lactic and glycolic acids	
O=C(O)C(O)CO (stereo not shown) [glyceric acid]		pKa [3]: 3.25
O=C(O)CO [glycolic acid]	prevented the related substances formation	
CC(O)C(=O)O (stereo not shown) [lactic acid]	reduced the related substances and made comparable to the control	
CC(=O)N[C@H](Cc1ccc2ccccc2c1)C(=O)N[C@H](Cc1ccc(Cl)cc1)C(=O)N[C@H](Cc1cccnc1)C(=O)N[C@@H](CO)C(=O)N[C@@H](CCCCNC(=O)c1ccccn1)C(=O)N[C@H](CCCNC(=O)c1ccc(N)nc1)C(=O)N[C@@H](CC(C)C)C(=O)N[C@@H](CCCCNC(C)C)C(=O)N1CCC[C@H]1C(=O)N[C@H](C)C(N)=O [orntide] (Ac-[d2Nal][dPhe(4-Cl)][d3Pal]SK(Picolinoyl)[dOrn](Nicotinoyl(6-NH2))L[Lys(iPr)]P[dA]-NH2)		solubility ([1]; aqueous media, even at a pH lower than 5): < 5000 µg/mL
CCCCCCCCCCCCCCCCCC(=O)O [stearic acid]	less efficient than lactic and glycolic acids	
